# Like-named read-outs stand apart in the source and are kept apart here.
# What was measured:
# [1] = system: Escherichia coli expressing NDM-1 (CLB30005, CLB30016); assay type: cell-based; details: with imipenem 1 μg/ml, 95% inhibition of bacterial growth
# Summary of the method: (§1)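 Clinical strains were grown overnight at 35 °C on blood agar, adjusted to set OD600 in saline and diluted 1:100 into 1.1× CAMHB. Inhibitor was tested with and without imipenem at 1 μg/ml. After 22–24 h at 35 °C, absorbance was read to give synergistic concentration.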
# [2] = system: Pseudomonas aeruginosa PAO1 MB9798 (efflux+, IMP-1); details: ratio MITC95 PA 9798/MITC95 PA 9799; imipenem at 2 μg/mL
# Summary of the method: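 Isogenic PAO1 pair (efflux+ MB9798, efflux− MB9799, both IMP-1) tested by microbroth MIC with fixed imipenem and/or ceftazidime, usually at CLSI breakpoint, plus fixed class A/C inhibitor against AmpC. MBL inhibitor titrated; concentration restoring susceptibility recorded and fold difference between strains taken as efflux extent.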
# [3] = system: Serratia marcescens expressing IMP-1 (CL5741); assay type: cell-based; details: with imipenem 1 μg/ml; 95% inhibition of bacterial growth; CL5741
# Summary of the method: as §1
SMILES,Escherichia coli (NDM-1) MITC95 [1],Efflux ratio [2],Serratia marcescens (IMP-1) MITC95 [3],Escherichia coli (NDM-1) MITC95 ([1]; CLB30016)
"NS(=O)(=O)c1c(S(=O)(=O)N[C@@H]2CCNC2)ccc(-c2cccn3ccnc23)c1-c1nn[nH]n1 [Example 291, (R)-4-(imidazo[1,2-a]pyridin-8-yl)-N1-(pyrrolidin-3-yl)-3-(2H-tetrazol-5-yl)benzene-1,2-disulfonamide]",0.7813 µM,1.00,–,–
"NCCN1CC[C@@H](NS(=O)(=O)c2ccc(-c3ccc(N)nc3)c(-c3nn[nH]n3)c2S(N)(=O)=O)C1 [Example 500, (R)—N1-(1-(2-aminoethyl)pyrrolidin-3-yl)-4-(6-aminopyridin-3-yl)-3-(2H-tetrazol-5-yl)benzene-1,2-disulfonamide]",–,–,1.563 µM,1.563 µM
"Nc1nc2c(-c3ccc(S(=O)(=O)NC[C@H]4CNCCN4)c(S(N)(=O)=O)c3-c3nn[nH]n3)cccc2[nH]1 [Example 314, (R)-4-(2-amino-1H-benzo[d]imidazol-4-yl)-N1-(piperazin-2-ylmethyl)-3-(2H-tetrazol-5-yl)benzene-1,2-disulfonamide]",0.7813 µM,1.00,–,–
"C[C@H](CN)NS(=O)(=O)c1ccc(-c2cccn3ccnc23)c(-c2nn[nH]n2)c1S(N)(=O)=O [Example 384, (R)—N1-(1-aminopropan-2-yl)-4-(imidazo[1,2-a]pyridin-8-yl)-3-(2H-tetrazol-5-yl)benzene-1,2-disulfonamide]",1.563 µM,0.50,–,–
"C[C@@H](N)c1nc2c(-c3ccc(S(=O)(=O)N[C@@H]4CCNC4)c(S(N)(=O)=O)c3-c3nn[nH]n3)cccc2[nH]1 [Example 273, 4-(2-((R)-1-aminoethyl)-1H-benzo[d]imidazol-4-yl)-N1-((R)-pyrrolidin-3-yl)-3-(2H-tetrazol-5-yl)benzene-1,2-disulfonamide]",1.563 µM,1.00,–,–
"CC[C@@H](CN)NS(=O)(=O)c1ccc(-c2cccc3[nH]c(N)nc23)c(-c2nn[nH]n2)c1S(N)(=O)=O [Example 264, (S)-4-(2-amino-1H-benzo[d]imidazol-4-yl)-N1-(1-aminobutan-2-yl)-3-(2H-tetrazol-5-yl)benzene-1,2-disulfonamide]",0.7813 µM,4.00,–,–
"Nc1cccc(-c2ccc(S(=O)(=O)N[C@@H]3CCNC3)c(S(N)(=O)=O)c2-c2nn[nH]n2)n1 [Example 277, (R)-4-(6-aminopyridin-2-yl)-N1-(pyrrolidin-3-yl)-3-(2H-tetrazol-5-yl)benzene-1,2-disulfonamide]",0.7813 µM,1.00,–,–
"NCCN1CC[C@H](NS(=O)(=O)c2ccc(-c3cccc4[nH]c(N)nc34)c(-c3nn[nH]n3)c2S(N)(=O)=O)C1 [Example 268, (S)-4-(2-amino-1H-benzo[d]imidazol-4-yl)-N1-(1-(2-aminoethyl)pyrrolidin-3-yl)-3-(2H-tetrazol-5-yl)benzene-1,2-disulfonamide]",0.7813 µM,1.00,–,–
"C[C@H](CN)NS(=O)(=O)c1ccc(-c2cccc3[nH]c(CN)nc23)c(-c2nn[nH]n2)c1S(N)(=O)=O [Example 383, (R)-4-(2-(aminomethyl)-1H-benzo[d]imidazol-4-yl)-N1-(1-aminopropan-2-yl)-3-(2H-tetrazol-5-yl)benzene-1,2-disulfonamide]",0.7813 µM,1.00,–,–
"NCc1nc2cc(-c3ccc(S(=O)(=O)N[C@@H]4CCNC4)c(S(N)(=O)=O)c3-c3nn[nH]n3)ccc2[nH]1 [Example 274, (R)-4-(2-(aminomethyl)-1H-benzo[d]imidazol-5-yl)-N1-(pyrrolidin-3-yl)-3-(2H-tetrazol-5-yl)benzene-1,2-disulfonamide]",0.7813 µM,1.00,–,–
"NCc1nc2c(-c3ccc(S(=O)(=O)NC[C@H](O)CN)c(S(N)(=O)=O)c3-c3nn[nH]n3)cccc2[nH]1 [Example 299, (R)—N1-(3-amino-2-hydroxypropyl)-4-(2-(aminomethyl)-1H-benzo[d]imidazol-4-yl)-3-(2H-tetrazol-5-yl)benzene-1,2-disulfonamide]",0.7813 µM,1.00,–,–
"NCC(=O)NC1CCC[C@@H](c2ccc(S(=O)(=O)N[C@@H]3CCNC3)c(S(N)(=O)=O)c2-c2nn[nH]n2)C1 (stereo partly drawn) [Example 270, 2-Amino-N-((3R)-3-(4-(N—((R)-pyrrolidin-3-yl)sulfamoyl)-3-sulfamoyl-2-(2H-tetrazol-5-yl)phenyl)cyclohexyl)acetamide]",1.563 µM,1.00,–,–
"NCCNS(=O)(=O)c1ccc(-c2cccc3c2CCCN3)c(-c2nn[nH]n2)c1S(N)(=O)=O [Example 455, N1-(2-Aminoethyl)-4-(1,2,3,4-tetrahydroquinolin-5-yl)-3-(2H-tetrazol-5-yl)benzene-1,2-disulfonamide]",1.563 µM,–,–,–
"N[C@H](CO)c1nc2c(-c3ccc(S(=O)(=O)N[C@H]4CNC[C@H]4N)c(S(N)(=O)=O)c3-c3nn[nH]n3)cccc2[nH]1 [Example 323, 4-(2-((S)-1-amino-2-hydroxyethyl)-1H-benzo[d]imidazol-4-yl)-N1-((3S,4R)-4-aminopyrrolidin-3-yl)-3-(2H-tetrazol-5-yl)benzene-1,2-disulfonamide]",1.563 µM,1.00,–,–
"Nc1nc2c(-c3ccc(S(=O)(=O)NC4CCNCC4)c(S(N)(=O)=O)c3-c3nn[nH]n3)cccc2[nH]1 [Example 260, 4-(2-amino-1H-benzo[d]imidazol-4-yl)-N1-(piperidin-4-yl)-3-(1H-tetrazol-5-yl)benzene-1,2-disuffonamide]",0.7813 µM,1.00,–,–
"NCc1nc2c(-c3ccc(S(=O)(=O)N[C@@H]4CCNC4)c(S(N)(=O)=O)c3-c3nn[nH]n3)cccc2[nH]1 [Example 283, (R)-4-(2-(aminomethyl)-1H-benzo[d]imidazol-4-yl)-N1-(pyrrolidin-3-yl)-3-(2H-tetrazol-5-yl)benzene-1,2-disulfonamide]",0.7813 µM,1.00,–,–
"NCCNS(=O)(=O)c1ccc(-c2cccc3[nH]c([C@@H](N)CO)nc23)c(-c2nn[nH]n2)c1S(N)(=O)=O [Example 331, (R)-4-(2-(1-amino-2-hydroxyethyl)-1H-benzo[d]imidazol-4-yl)-N1-(2-aminoethyl)-3-(2H-tetrazol-5-yl)benzene-1,2-disulfonamide]",1.563 µM,1.00,–,–
"C[C@@H](CCN)NS(=O)(=O)c1ccc(-c2cccc3[nH]c(N)nc23)c(-c2nn[nH]n2)c1S(N)(=O)=O [Example 267, (S)-4-(2-amino-1H-benzo[d]imidazol-4-yl)-N1-(4-aminobutan-2-yl)-3-(2H-tetrazol-5-yl)benzene-1,2-disulfonamide]",0.7813 µM,1.00,–,–
"NC[C@@H](CO)NS(=O)(=O)c1ccc(-c2cccc3[nH]c(N)nc23)c(-c2nnn[nH]2)c1S(N)(=O)=O [Example 426, (S)-4-(2-Amino-1H-benzo[d]imidazol-4-yl)-N^1-(1-amino-3-hydroxypropan-2-yl)-3-(1H-tetrazol-5-yl)benzene-1,2-disulfonamide]",0.3906 µM,–,–,–
"NCC(CN)NS(=O)(=O)c1ccc(-c2cccc3sc(N)nc23)c(-c2nn[nH]n2)c1S(N)(=O)=O [Example 436, 4-(2-aminobenzo[d]thiazol-4-yl)-N1-(1,3-diaminopropan-2-yl)-3-(2H-tetrazol-5-yl)benzene-1,2-disulfonamide]",0.7813 µM,–,–,–
"NC(=O)c1nc2c(-c3ccc(S(=O)(=O)N[C@H]4CCNC4)c(S(N)(=O)=O)c3-c3nn[nH]n3)cccc2[nH]1 [Example 292, (S)-4-(4-(N-(pyrrolidin-3-yl)sulfamoyl)-3-sulfamoyl-2-(2H-tetrazol-5-yl)phenyl)-1H-benzo[d]imidazole-2-carboxamide]",1.563 µM,0.50,–,–
"NCc1nc2cc(-c3ccc(S(=O)(=O)NC[C@H](O)CN)c(S(N)(=O)=O)c3-c3nn[nH]n3)ccc2[nH]1 [Example 464, (R)—N1-(3-amino-2-hydroxypropyl)-4-(2-(aminomethyl)-1H-benzo[d]imidazole-5-yl)-3-(2H-tetrazol-5-yl)benzene-1,2-disulfonamide]",0.7813 µM,–,–,–
"Nc1nc2c(-c3ccc(S(=O)(=O)NC[C@@]4(N)CCNC4)c(S(N)(=O)=O)c3-c3nn[nH]n3)cccc2s1 [Example 367, (R)-4-(2-aminobenzo[d]thiazol-4-yl)-N1-((3-aminopyrrolidin-3-yl)methyl)-3-(2H-tetrazol-5-yl)benzene-1,2-disulfonamide]",1.563 µM,0.50,–,–
"NCc1nc2cc(-c3ccc(S(=O)(=O)N[C@@H](CN)CO)c(S(N)(=O)=O)c3-c3nn[nH]n3)ccc2[nH]1 [Example 474, (S)-N1-(1-amino-3-hydroxypropan-2-yl)-4-(2-(aminomethyl)-1H-benzo[d]imidazol-5-yl)-3-(2H-tetrazol-5-yl)benzene-1,2-disulfonamide]",0.7813 µM,–,–,–
"NCc1nc2cc(-c3ccc(S(=O)(=O)NC[C@@H](O)CN)c(S(N)(=O)=O)c3-c3nn[nH]n3)ccc2s1 [Example 473, (S)-N1-(3-amino-2-hydroxypropyl)-4-(2-(aminomethyl)benzo[d]thiazol-5-yl)-3-(2H-tetrazol-5-yl)benzene-1,2-disulfonamide]",0.7813 µM,–,–,–

# Reference: US10544130B2, “Metallo-beta-lactamase inhibitors” (priority 2015, dated 2020)
